Measured values: the supplement of paper PMC8967900

Columns and labels:
Experiment in all cases: selective drug sensitivity score (sDSS, relative to normal bone marrow) (sDSS (score)); higher = more potent and effective on the cell line relative to normal bone marrow cells
Settings in all cases: 72 h
697 = tested on: 697
ALL-PO = tested on: ALL-PO
CCRF-HSB2 = tested on: CCRF-HSB2
COG-LL-317 = tested on: COG-LL-317
COG-LL-402h = tested on: COG-LL-402h
HAL-01 = tested on: HAL-01
KARPAS-45 = tested on: KARPAS-45
KOPN-8 = tested on: KOPN-8
MHH-CALL-2 = tested on: MHH-CALL-2
MHH-CALL-3 = tested on: MHH-CALL-3
MHH-CALL-4 = tested on: MHH-CALL-4
MOLT-4 = tested on: MOLT-4
NALM-16 = tested on: NALM-16
NALM-6 = tested on: NALM-6
P30-OHKUBO = tested on: P30-OHKUBO
PF-382 = tested on: PF-382
RCH-ACV = tested on: RCH-ACV
RPMI-8402 = tested on: RPMI-8402
SEM cells = tested on: SEM cells
TANOUE = tested on: TANOUE
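Note: ALL cell lines in 384-well plates, five doses spanning 10,000-fold, each plate scaled between vehicle and 100 µmol/L benzalkonium chloride controls, sDSS an adapted area-under-curve metric.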

Compound	selective drug sensitivity score 697	selective drug sensitivity score (ALL-PO)	selective drug sensitivity score (CCRF-HSB2)	selective drug sensitivity score (COG-LL-317)	selective drug sensitivity score (COG-LL-402h)	selective drug sensitivity score (HAL-01)	selective drug sensitivity score (KARPAS-45)	selective drug sensitivity score (KOPN-8)	selective drug sensitivity score (MHH-CALL-2)	selective drug sensitivity score (MHH-CALL-3)	selective drug sensitivity score (MHH-CALL-4)	selective drug sensitivity score (MOLT-4)	selective drug sensitivity score (NALM-16)	selective drug sensitivity score (NALM-6)	selective drug sensitivity score (P30-OHKUBO)	selective drug sensitivity score (PF-382)	selective drug sensitivity score (RCH-ACV)	selective drug sensitivity score (RPMI-8402)	selective drug sensitivity score (SEM cells)	selective drug sensitivity score (TANOUE)
CC(C)Nc1cc(-c2c[nH]c(C(=O)N[C@H](CO)c3cccc(Cl)c3)c2)c(Cl)cn1 [Ulixertinib] (top concentration 10000 nM)	1.62	6.72	1.32	-4.38	-0.38	1.92	-0.18	5.42	2.72	-4.38	2.22	1.72	3.22	0.12	-0.18	-0.28	2.82	-1.38	1.62	-4.38
CC(C)[C@H](C(=O)Nc1ccc(C(=O)NO)cc1)c1ccccc1 [AR-42] (top concentration 10000 nM)	9.58	10.7	7.28	6.48	10.8	3.28	10.8	10.6	11	14.3	8.08	7.08	1.68	4.48	5.18	5.78	13.9	8.18	9.08	-4.22
C[C@@]1(C(=O)Nc2ccc(F)nc2)CCCN1c1nc(Nc2cc(C3CC3)n[nH]2)c2cccn2n1 (top concentration 10000 nM)	11.8	13	12.1	12.5	8.18	2.58	6.18	4.68	11.7	3.28	4.58	8.68	2.88	4.08	11.2	6.18	6.08	5.58	8.98	-6.52
COc1cccc2c1C(=O)c1c(O)c3c(c(O)c1C2=O)C[C@@](O)(/C(CO)=N/NC(=O)CCCCCN1C(=O)C=CC1=O)C[C@@H]3O[C@H]1C[C@H](N)[C@H](O)[C@H](C)O1 [Aldoxorubicin] (top concentration 1000 nM)	10.2	-2.06	14.8	14.8	14.3	0.34	0.94	14.2	9.84	14.1	8.14	11.8	-0.46	4.34	7.34	3.24	11.7	5.34	3.64	-7.76
C[C@@H]1COCCN1c1cc(C2([S@](C)(=N)=O)CC2)nc(-c2cc[nH]c3nccc2-3)n1 [AZD6738] (top concentration 25000 nM)	11	4.58	4.58	16	7.68	9.58	8.28	15.5	13.2	12.2	5.48	8.78	0.68	7.28	5.78	4.68	15.9	8.98	17.2	-6.12
CO[C@H](C(=O)[C@@H](O)[C@@H](C)O)[C@@H]1Cc2cc3cc(O[C@H]4C[C@@H](O[C@H]5C[C@@H](O)[C@H](O)[C@@H](C)O5)[C@@H](O)[C@@H](C)O4)c(C)c(O)c3c(O)c2C(=O)[C@H]1O[C@H]1C[C@@H](O[C@H]2C[C@@H](O[C@H]3C[C@](C)(O)[C@H](O)[C@@H](C)O3)[C@H](O)[C@@H](C)O2)[C@H](O)[C@@H](C)O1 [Plicamycin] (top concentration 10000 nM)	-17.5	-15.9	-5.26	-1.96	2.34	-17.9	-11.1	-17.8	-6.26	5.34	-7.26	-6.26	2.74	7.34	-16.3	-12.1	-17.3	-5.86	-16.6	-14.4
O=C(Nc1nc2cccc(-c3ccc(CN4CCS(=O)(=O)CC4)cc3)n2n1)C1CC1 [Filgotinib] (top concentration 10000 nM)	0.06	6.16	-2.54	1.16	-1.54	5.66	-1.04	5.46	5.36	1.26	2.86	-5.34	-5.34	-2.44	2.56	-2.24	1.56	-2.24	1.96	-5.34
CCN(CCO)CCCOc1ccc2c(Nc3cc(CC(=O)Nc4cccc(F)c4)[nH]n3)ncnc2c1 [AZD1152-HQPA] (top concentration 1000 nM)	16.5	7.64	23.5	19.8	18.4	-4.46	24.7	12.1	6.64	5.24	2.04	13.5	0.34	8.94	24.7	9.94	14	13	15.7	-3.06
CC1(C)CCC(c2ccc(Cl)cc2)=C(CN2CCN(c3ccc(C(=O)NS(=O)(=O)c4ccc(N[C@H](CCN5CCOCC5)CSc5ccccc5)c(S(=O)(=O)C(F)(F)F)c4)cc3)CC2)C1 [Navitoclax] (top concentration 10000 nM)	13	23.6	8.92	20.5	23.4	14.8	22.8	23.2	21.1	29	18.4	15.6	19.2	11.7	16.8	13.7	3.32	7.42	14.2	-8.58
